Reference: US20230094922A1, “METHODS OF THERAPEUTIC PROGNOSTICATION” (GENETIKAPLUS LTD., priority 2020, published 2023)

System: iPSC-derived cortical neurons
Experiment: RNA sequencing, differential gene expression: Bupropion-treated vs vehicle-only induced neurons (Tables 5, 6)
Format: cell-based, human
Protocol: iPSC differentiation into neurons-iPSCs were seeded at a density of 3×10^6 cells/well on a hESC-qualified Matrigel pre-coated 6-well plate and incubated at 37° C., 5% CO2 overnight. Differentiation was initiated the following day (day 0) after verifying that 100% confluency was reached. Differentiation media was added daily according to the following order: […]7 (day 15 onward) similar to a previously published protocol developed by for rapid differentiation to cortical neurons. The components of the described media, Q1-7, are provided in Appendix 1. Cells were assessed for differentiation efficiency and cell death on a daily basis. On day 9, differentiated neurons were re-plated on either 96-well plates (destined for staining) or 12-well plates (destined for RNA extraction) that were coated with 15 μg/mL Poly-ornithine diluted in PBS (overnight incubation at 37° C.), followed by 1 μg/mL Laminin and 2 μg/mL Fibronectin diluted in PBS (overnight incubation at 37° C.): Neurons were first rinsed with pre-warmed PBS and 1 ml/well of Accutase was added for 35 minutes at 37° C., 5% CO2. DNAse1 (0.5 mg/mL) was then added for 10 additional minutes. 3 ml of pre-warmed Neurobasal media was added to each well and neurons were gently collected using a 5 ml […]. Wells were then verified for the presence of any remaining neurons. Neurons were spun down and resuspended in Q6 media. Neurons were seeded at a density of 150,000 cells/cm^2 placed back at 37° C. Following four hours of incubation, media was changed to Q6 media (150 μl per 96-well and 1 ml per 12-well). […] RNA-sequencing samples were aligned to the GRCh38 reference genome using STAR aligner. TMM normalization of RNA read counts and differential gene expression analysis were carried out using edgeR. […] Cells were reprogrammed into iPSCs, following which iPSCs were differentiated into frontal cortical neuronal cells (see Materials and Methods). […] Another dose of drug or control was also administered at day 32. At day 35 neurons were either fixed for histological examination or isolated for RNA extraction.

[1] = 10 μM Bupropion vs vehicle, responder-derived neurons, day 35, PValue NS (not significant)
[2] = Bupropion vs vehicle only, p<0.05, over 60,000 genes probed

CC(NC(C)(C)C)C(=O)c1cccc(Cl)c1 (stereo not drawn) [Bupropion, 3-Chloro-N-tert-butyl-β-keto-α-methylphenethylamin]
logFC NFKBID expression (10 μM Bupropion vs vehicle, responder-derived neurons, day 35, PValue 0.003685448): −0.6042 | logFC TCF7 expression (10 μM Bupropion vs vehicle, responder-derived neurons, day 35, PValue 0.005666754): −0.3904 | logFC DUSP23 expression (10 μM Bupropion vs vehicle, responder-derived neurons, day 35, PValue 0.006214757): −0.4927 | logFC TENT5B expression (10 μM Bupropion vs vehicle, responder-derived neurons, day 35, PValue 0.008132328): −0.8021 | logFC UGT3A2 expression (10 μM Bupropion vs vehicle, responder-derived neurons, day 35, PValue 0.009321582): −0.4889 | logFC CCDC51 expression (10 μM Bupropion vs vehicle, responder-derived neurons, day 35, PValue 0.012079592): −0.2443 | logFC CTNS expression (10 μM Bupropion vs vehicle, responder-derived neurons, day 35, PValue 0.013463621): −0.2404 | logFC PYCARD expression (10 μM Bupropion vs vehicle, responder-derived neurons, day 35, PValue 0.013981248): −1.05 | logFC ABHD4 expression (10 μM Bupropion vs vehicle, responder-derived neurons, day 35, PValue 0.014582448): −0.3111 | logFC PTPRQ expression (10 μM Bupropion vs vehicle, responder-derived neurons, day 35, PValue 0.018081564): 0.89 | logFC SMPDL3B expression (10 μM Bupropion vs vehicle, responder-derived neurons, day 35, PValue 0.022812161): −0.7488 | logFC KLC3 expression (10 μM Bupropion vs vehicle, responder-derived neurons, day 35, PValue 0.023692875): −0.8533 | logFC PNKP expression (10 μM Bupropion vs vehicle, responder-derived neurons, day 35, PValue 0.024437941): −0.2172 | logFC SPNS1 expression (10 μM Bupropion vs vehicle, responder-derived neurons, day 35, PValue 0.024838304): −0.7022 | logFC FAM117A expression (10 μM Bupropion vs vehicle, responder-derived neurons, day 35, PValue 0.025868873): −0.2485 | logFC PPL expression (10 μM Bupropion vs vehicle, responder-derived neurons, day 35, PValue 0.026069274): −0.3932 | logFC ZNF425 expression (10 μM Bupropion vs vehicle, responder-derived neurons, day 35, PValue 0.026180649): −0.2317 | logFC MT2A expression (Table 6, downregulated) (10 μM Bupropion vs vehicle, responder-derived neurons, day 35, PValue 0.02632325): −0.7705 | logFC COX16 expression (10 μM Bupropion vs vehicle, responder-derived neurons, day 35, PValue 0.026606667): 0.3985 | logFC RSAD2 expression (10 μM Bupropion vs vehicle, responder-derived neurons, day 35, PValue 0.026606947): 0.9753 | logFC PPP1R1B expression (10 μM Bupropion vs vehicle, responder-derived neurons, day 35, PValue 0.026677416): −0.677 | logFC LLPH expression (10 μM Bupropion vs vehicle, responder-derived neurons, day 35, PValue 0.026874183): 0.1758 | logFC CKS1B expression (10 μM Bupropion vs vehicle, responder-derived neurons, day 35, PValue 0.02807621): −0.3153 | logFC LGR6 expression (10 μM Bupropion vs vehicle, responder-derived neurons, day 35, PValue 0.028853165): −0.6091 | logFC TSTD2 expression (10 μM Bupropion vs vehicle, responder-derived neurons, day 35, PValue 0.028984217): 0.1932 | logFC HS3ST5 expression (10 μM Bupropion vs vehicle, responder-derived neurons, day 35, PValue 0.028999172): 0.5251 | logFC ART5 expression (10 μM Bupropion vs vehicle, responder-derived neurons, day 35, PValue 0.030155652): −0.5082 | logFC ADRA2B expression (10 μM Bupropion vs vehicle, responder-derived neurons, day 35, PValue 0.031233579): −0.7451 | logFC ZNF394 expression (10 μM Bupropion vs vehicle, responder-derived neurons, day 35, PValue 0.031885505): −0.1977 | logFC CHMP4A expression (10 μM Bupropion vs vehicle, responder-derived neurons, day 35, PValue 0.031923817): 0.3939 | logFC ETV5 expression (10 μM Bupropion vs vehicle, responder-derived neurons, day 35, PValue 0.031953602): −0.2432 | logFC VWA2 expression (10 μM Bupropion vs vehicle, responder-derived neurons, day 35, PValue 0.033110679): −0.8249 | logFC CDC42BPG expression (10 μM Bupropion vs vehicle, responder-derived neurons, day 35, PValue 0.034205433): −0.6386 | logFC PSD3 expression (10 μM Bupropion vs vehicle, responder-derived neurons, day 35, PValue 0.034363174): 0.2947 | logFC TRAF3IP2 expression (10 μM Bupropion vs vehicle, responder-derived neurons, day 35, PValue 0.035638975): −0.342 | logFC TXNRD2 expression (10 μM Bupropion vs vehicle, responder-derived neurons, day 35, PValue 0.036129679): −0.3971 | logFC RAB43 expression (10 μM Bupropion vs vehicle, responder-derived neurons, day 35, PValue 0.036339642): −0.7667 | logFC APOE expression (10 μM Bupropion vs vehicle, responder-derived neurons, day 35, PValue 0.036466348): −0.4756 | logFC TYW1B expression (10 μM Bupropion vs vehicle, responder-derived neurons, day 35, PValue 0.037441749): −0.2836 | logFC ARL17B expression (10 μM Bupropion vs vehicle, responder-derived neurons, day 35, PValue 0.037774775): 0.4487 | logFC TOM1 expression (10 μM Bupropion vs vehicle, responder-derived neurons, day 35, PValue 0.039328923): −0.2212 | logFC FGF1 expression (10 μM Bupropion vs vehicle, responder-derived neurons, day 35, PValue 0.040753088): 0.7441 | logFC GPR89A expression (10 μM Bupropion vs vehicle, responder-derived neurons, day 35, PValue 0.040776978): −0.3135 | logFC HAUS8 expression (10 μM Bupropion vs vehicle, responder-derived neurons, day 35, PValue 0.040813288): −0.3377 | logFC TNNI3 expression (10 μM Bupropion vs vehicle, responder-derived neurons, day 35, PValue 0.04085042): −0.4473 | logFC INMT expression (10 μM Bupropion vs vehicle, responder-derived neurons, day 35, PValue 0.04107423): 0.8156 | logFC LHFPL3 expression (10 μM Bupropion vs vehicle, responder-derived neurons, day 35, PValue 0.041076888): 0.8454 | logFC TJP3 expression (10 μM Bupropion vs vehicle, responder-derived neurons, day 35, PValue 0.041258334): −0.4285 | logFC RNASEK expression (10 μM Bupropion vs vehicle, responder-derived neurons, day 35, PValue 0.041364592): −0.4148 | logFC MACROD1 expression (10 μM Bupropion vs vehicle, responder-derived neurons, day 35, PValue 0.041485982): −0.4078 | logFC DDX55 expression (10 μM Bupropion vs vehicle, responder-derived neurons, day 35, PValue 0.041521555): −0.177 | logFC MAP4K1 expression (10 μM Bupropion vs vehicle, responder-derived neurons, day 35, PValue 0.041777603): −0.4541 | logFC MADCAM1 expression (10 μM Bupropion vs vehicle, responder-derived neurons, day 35, PValue 0.042721026): −0.6346 | logFC NMRK2 expression (10 μM Bupropion vs vehicle, responder-derived neurons, day 35, PValue 0.042934722): −0.915 | logFC RARRES2 expression (10 μM Bupropion vs vehicle, responder-derived neurons, day 35, PValue 0.044126316): −0.5614 | logFC GABRD expression (10 μM Bupropion vs vehicle, responder-derived neurons, day 35, PValue 0.044432972): −0.661 | logFC SCN9A expression (10 μM Bupropion vs vehicle, responder-derived neurons, day 35, PValue 0.044462789): 0.653 | logFC CTSD expression (10 μM Bupropion vs vehicle, responder-derived neurons, day 35, PValue 0.044610728): −0.3042 | logFC MINDY3 expression (10 μM Bupropion vs vehicle, responder-derived neurons, day 35, PValue 0.044932218): 0.1907 | logFC FBXO2 expression (10 μM Bupropion vs vehicle, responder-derived neurons, day 35, PValue 0.044969345): −0.5297 | logFC MT1X expression (10 μM Bupropion vs vehicle, responder-derived neurons, day 35, PValue 0.045842417): −0.6858 | logFC LRRC2 expression (10 μM Bupropion vs vehicle, responder-derived neurons, day 35, PValue 0.045853063): −0.8234 | logFC ZFP69B expression (10 μM Bupropion vs vehicle, responder-derived neurons, day 35, PValue 0.046824204): 0.2565 | logFC SLC45A2 expression (10 μM Bupropion vs vehicle, responder-derived neurons, day 35, PValue 0.046871029): −1.05 | logFC KLHL21 expression (10 μM Bupropion vs vehicle, responder-derived neurons, day 35, PValue 0.047318696): −0.2723 | logFC RILPL1 expression (10 μM Bupropion vs vehicle, responder-derived neurons, day 35, PValue 0.047560251): −0.1692 | logFC PSMB10 expression (10 μM Bupropion vs vehicle, responder-derived neurons, day 35, PValue 0.048107795): −0.5669 | logFC LHPP expression (10 μM Bupropion vs vehicle, responder-derived neurons, day 35, PValue 0.048445403): −0.2669 | logFC RABEP2 expression (10 μM Bupropion vs vehicle, responder-derived neurons, day 35, PValue 0.049224822): −0.2496 | logFC LARGE2 expression (10 μM Bupropion vs vehicle, responder-derived neurons, day 35, PValue 0.049340025): −0.566 | logFC ZNF221 expression (10 μM Bupropion vs vehicle, responder-derived neurons, day 35, PValue 0.049596306): 0.3254 | logFC LIN37 expression (10 μM Bupropion vs vehicle, responder-derived neurons, day 35, PValue 3.06E−05): −0.8411 | logFC APOL1 expression [1]: −0.7489 | logFC ATP8B4 expression [1]: −0.6945 | logFC CA3 expression [1]: 0.6571 | logFC CDK6 expression [1]: 0.2579 | logFC CORT expression [1]: 0.6431 | logFC CXCL11 expression (Table 6, downregulated) [1]: −1.176 | logFC ESR2 expression [1]: 0.4833 | logFC GOLGA8H expression [1]: −0.565 | logFC GRPR expression [1]: 0.6268 | logFC MT1E expression [1]: 2.123 | logFC MT2A expression (Table 5, upregulated) [1]: 1.378 | logFC PITX2 expression [1]: 0.9302 | logFC SEPTIN5 expression [1]: 0.5877 | number of genes significantly downregulated in responders after treatment, but not in non-responders [2]: 57 genes | number of genes significantly upregulated in responders after treatment, but not in non-responders [2]: 18 genes
